Source: patent US11643439B2, “Multi-target compound with anticoagulation and antiplatelet activity, preparation method therefor, and use thereof” (SHAANXI MICOT TECHNOLOGY LIMITED COMPANY, priority 2015, dated 2023)
Marks after values point to notes of the source that are not given here.

Assays:
[1] = test system: FeCl3-induced common carotid arterial thrombosis; assay: FeCl3-induced common carotid arterial thrombosis in rats; type: in vivo, rat
Experimental: 160 Rats were randomly divided into groups, 5 to 10 rats per group.
According to the body weight in kilograms of the rats, the first dose of a drug was dissolved in 2 mL of physiological saline for single bolus injection. The maintaining dose of drug was dissolved in 9 ml of physiological saline, and placed in a double-channel micro-injection pump, which was dripped off within 90 minutes at a dripping speed of 0.1 ml/min. The sham operation group was administered with the same volume of physiological saline.
The rats were fasted with free access to water overnight before the experiment.
After administration at a load dosage maintenance for 30 minutes, a filter paper with a 3 mm diameter and immersed with 35% FeCl3 solution was applied below the common carotid artery, below which a small piece of a plastic film (2.5 cm×2.0 cm) was placed to protect surrounding tissues. The body temperature was detected with a temperature probe in the distal end of the artery, and the time required from the beginning of stimulation to the point when the temperature decreased by 2.5 degrees was examined as the vascular occlusion time.
The time from the point when FeCl3 was placed to the point when the temperature of the artery indicated a decrease of 2.5° C. was the vascular occlusion time, which reflected the state of thrombus formation.

platelet aggregation = assay: Platelet aggregation in rabbits, single intravenous administration; type: in vivo, rabbit
Experimental: (§1) 1. Grouping and administration: 48 Rabbits were randomly divided into 6 groups, 8 rabbits per group. 1) Sham operation group (NS): Intravenous injection of the same volume of physiological saline; 2) positive control bivalirudin group (6 mg/kg); 3) positive control enoxaparin group (200 U/kg); 4) Low dose group of polypeptide 2 (3.0 mg/kg); 5) Medium dose group of polypeptide 2 (6.0 mg/kg); 6) High dose group of polypeptide 2 (12.0 mg/kg). Polypeptide 2 was administered by single intravenous administration. According to the body weight in kilograms of the rabbits, the sample was dissolved in 2 mL of physiological saline for single bolus injection. The sham operation group was administered with the same volume of physiological saline.
3.1 Platelet aggregation rate: 2.7 ml of blood was taken from the femoral vein, rapidly injected into a centrifuge tube containing 0.3 ml of 3.8% sodium citrate solution, and fully mixed well. The resulted blood samples were centrifuged at 810 rpm (100 g) for 8 min to obtain PRP, which was taken out and centrifuged at 3500 rpm (1863 g) for 8 min to obtain PPP, which was used to determine platelet aggregation.
Blood samples were taken at a point before administration (0 min), and at points of administration for 5 min and 15 min, respectively, to determine the platelet aggregation rate, which was used to calculate the inhibitory rate of platelet aggregation with a calculation equation as follows: […]

[2] = test system: blood coagulation function; assay: PT in rabbits, single intravenous administration; type: in vivo, rabbit
Experimental: as §1
(§2) 3.2 Determination of blood coagulation function: Blood samples were taken and the blood function (PT, TT, APTT) was determined at 0 min before administration, at points of 5 min and 15 min after administration, using a platelet-aggregation coagulation factor analyzer. Blood samples were centrifuged at 3510 rpm for 8 min to obtain platelet poor plasma (PPP). Reagent reconstruction and preservation were performed according to the operation requirements of the kit. Immediately after each blood sample was placed into a test cup and then added with PT. TT and APTT reagents, the test was started. After the test was completed, results were recorded.

whole blood coagulation = assay: ACT in rabbits, single intravenous administration; type: in vivo, rabbit
Experimental: as §1
3.3 Determination of ACT: At 0 min before administration and at points of administration for 5 min and 15 min, the whole blood was taken, to which kaolin was added, and placed in a water bath at 37° C. to record the whole blood coagulation time.

[3] = test system: FeCl3-induced femoral artery thrombosis; assay: FeCl3-induced femoral artery thrombosis in rabbits, single intravenous administration; type: in vivo, rabbit
Experimental: as §1
2.1 Surgery preparation of rabbits: Rabbit were sent to the laboratory for accommodation for one day, and then screened at first. Blood samples were taken from arteries within ears, which were subjected to blood routine analysis and APTT examinations, and the rabbits with a normal blood hemogram and APTT between 16 and 28 seconds were selected for experiments. The rabbits to be tested were fasted with free access to water in the night before the experiment. The rabbits were anesthetized with intravenous injection of 3% sodium pentobarbital solution at 1 ml/kg, fixed in the supine position, and then, the common carotid artery at one side, external jugular vein, femoral artery at one side, femoral vein, and forelimb vein at one side were isolated. The forelimb vein was subjected to intubation for administration; the left femoral vein was subjected to intubation for blood collection to determine the platelet aggregation rate: the femoral artery was used for the establishment of an arterial thrombosis model; the common carotid artery and external jugular vein were used for the establishment of an arterial and venous bypass thrombosis model.
2.3 Arterial thrombosis (AT) model: A small piece of filter paper (1 cm×1.5 cm) absorbed with 50% FeCl3 solution was applied onto the right femoral artery while administration, below which a small piece of a plastic film (2.5 cm×2.0 cm) was placed to protect surrounding tissues. After 10 minutes, the filter paper was removed, and then, the blood vessels and local tissues were rinsed with warm physiological saline, and the covered blood vessels were cut off. The thrombus which attached to the blood vessel walls was peeled off to be weighed on a tin foil for its wet weight, and then kept overnight at room temperature and weighed for its dry weight.
The femoral arteries in the […] and both sides in the rabbits were isolated and stabilized for 10 min before the administration was started. An AT model was established by covering the femoral artery with 50% FeCl3 filter paper while administration, and the filter paper was removed after covering for 15 minutes. An AVST model was established and it was taken out after […]. Observation was continued for 120 min after administration until the experiment was completed.
3.4 Thrombus weight: After the experiment was completed, the segment of the blood vessels in which there had been thrombus formation was cut off, weighed for the wet weight, and then kept overnight at room temperature and weighed for the dry weight. The thrombosis inhibitory rate was calculated with a calculation equation as follows: […]

[4] = test system: blood coagulation function; assay: TT in rabbits, single intravenous administration; type: in vivo, rabbit
Experimental: as §1, §2

[5] = iv 0.08 + 0.325 (mg/kg + mg/kg/h)
[6] = iv 0.17 + 0.65 (mg/kg + mg/kg/h)
[7] = iv 0.35 + 1.3 (mg/kg + mg/kg/h)
[8] = single iv 6.0 mg/kg, Administration for 5 min
[9] = single iv 6.0 mg/kg, Administration for 15 min
[10] = single iv 6.0 mg/kg, Administration 5 min
[11] = single iv 6.0 mg/kg, Administration 15 min
[12] = single iv 6.0 mg/kg, Before administration
[13] = single iv 6.0 mg/kg, After administration 5 min
[14] = single iv 6.0 mg/kg, After administration 15 min
[15] = iv 0.125 + 0.375 (mg/kg + mg/kg/h)
[16] = iv 0.25 + 0.75 (mg/kg + mg/kg/h)
[17] = single iv 3.0 mg/kg, Administration for 5 min
[18] = single iv 3.0 mg/kg, Administration for 15 min
[19] = single iv 12.0 mg/kg, Administration for 5 min
[20] = single iv 12.0 mg/kg, Administration for 15 min
[21] = single iv 3.0 mg/kg, Before administration
[22] = single iv 12.0 mg/kg, Before administration

Bivalirudin: Bivalirudin for Injection, Xi'an Xintong Pharmaceutical Research Co., Ltd.; positive control thrombin inhibitor
Common carotid arterial thrombosis Fold of prolongation [1, 5]: 1.79 ± 0.06 | Common carotid arterial thrombosis OT [1, 5]: 44.75 ± 1.53 min | Common carotid arterial thrombosis Fold of prolongation [1, 6]: 2.24 ± 0.24 | Common carotid arterial thrombosis OT [1, 6]: 56.00 ± 6.03 min | Common carotid arterial thrombosis Fold of prolongation [1, 7]: 2.23 ± 0.33 | Common carotid arterial thrombosis OT [1, 7]: 55.63 ± 8.21 min | Common carotid arterial thrombosis Fold of prolongation ([1]; iv 0.5 + 2 (mg/kg + mg/kg/h)): 2.32 ± 0.23 | Common carotid arterial thrombosis OT ([1]; iv 0.5 + 2 (mg/kg + mg/kg/h)): 58.00 ± 5.77 min | inhibitory rate of platelet aggregation (platelet aggregation; [8]): 5.2 ± 5.8% | inhibitory rate of platelet aggregation (platelet aggregation; [9]): 4.6 ± 6.0% | PT fold of prolongation [2, 10]: 3.0 ± 0.5 | PT fold of prolongation [2, 11]: 1.6 ± 0.2 | PT [2, 8]: 18.8 ± 1.1 S | PT [2, 9]: 10.2 ± 0.7 S | PT [2, 12]: 6.4 ± 0.2 S | ACT (whole blood coagulation; [8]): 443.8 ± 35.3 s | ACT (whole blood coagulation; [9]): 375.0 ± 24.1*^ s | ACT fold of prolongation (whole blood coagulation; [13]): 1.5 ± 0.3 | ACT fold of prolongation (whole blood coagulation; [14]): 1.3 ± 0.4 | ACT (whole blood coagulation; [12]): 305.6 ± 24.0 s | Thrombus dry weight ([3]; single iv 6.0 mg/kg): 1.5 ± 0.9 mg | Thrombus inhibitory rate ([3]; single iv 6.0 mg/kg): 48.20% | TT [4, 8]: >180 s | TT [4, 9]: >180 s | TT [4, 12]: 22.4 ± 5.2 S

D-Phe Pro Arg Pro Gly Gly Gly Gly Asn Gly Asp Phe Glu Glu Ile Pro Glu Glu Tyr Leu Glu Ala Ala Ala Lys Cys Har Gly Asp Trp Pro Cys [Polypeptide 2]
Common carotid arterial thrombosis OT ([1]; iv 0.041 + 0.125 (mg/kg + mg/kg/h)): 20.20 ± 10.00 min | Common carotid arterial thrombosis Fold of prolongation [1, 15]: 27.99 | Common carotid arterial thrombosis OT [1, 15]: 16.23 ± 6.76 min | Common carotid arterial thrombosis Fold of prolongation [1, 16]: 36.85 | Common carotid arterial thrombosis OT [1, 16]: 14.23 ± 4.82 min | Common carotid arterial thrombosis OT ([1]; iv 0.5 + 1.25 (mg/kg + mg/kg/h)): 9.25 ± 4.86 min | Common carotid arterial thrombosis Fold of prolongation ([1]; iv 1 + 2.5 (mg/kg + mg/kg/h)): 56.03 | Common carotid arterial thrombosis OT ([1]; iv 1 + 2.5 (mg/kg + mg/kg/h)): 9.91 ± 6.20 min | Common carotid arterial thrombosis OT ([1]; iv 1.5 + 3.75 (mg/kg + mg/kg/h)): 7.13 ± 3.46 min | inhibitory rate of platelet aggregation (platelet aggregation; [17]): 17.2 ± 6.7% | inhibitory rate of platelet aggregation (platelet aggregation; [18]): 6.3 ± 7.0% | inhibitory rate of platelet aggregation (platelet aggregation; [8]): 47.5 ± 5.8*^#¥& % | inhibitory rate of platelet aggregation (platelet aggregation; [9]): 15.4 ± 6.0% | inhibitory rate of platelet aggregation (platelet aggregation; [19]): 72.5 ± 6.2*#^¥&@ % | inhibitory rate of platelet aggregation (platelet aggregation; [20]): 46.0 ± 6.5*^#¥&@ % | PT fold of prolongation ([2]; single iv 3.0 mg/kg, Administration 5 min): 1.5 ± 0.4 | PT fold of prolongation ([2]; single iv 3.0 mg/kg, Administration 15 min): 1.2 ± 0.2 | PT [2, 17]: 8.9 ± 1.2 S | PT [2, 18]: 7.0 ± 0.8 S | PT [2, 21]: 6.0 ± 0.3 S | PT fold of prolongation [2, 10]: 2.0 ± 0.4 | PT fold of prolongation [2, 11]: 1.4 ± 0.3 | PT [2, 8]: 12.9 ± 1.1*^#¥ S | PT [2, 9]: 8.9 ± 0.7 S | PT [2, 12]: 6.3 ± 0.2 S | PT fold of prolongation ([2]; single iv 12.0 mg/kg, Administration 5 min): 3.0 ± 0.8 | PT fold of prolongation ([2]; single iv 12.0 mg/kg, Administration 15 min): 2.0 ± 0.6 | PT [2, 19]: 19.2 ± 1.1 *^¥& S | PT [2, 20]: 12.5 ± 0.7 *^¥&@ S | PT [2, 22]: 6.5 ± 0.2 S | ACT (whole blood coagulation; [17]): 352.5 ± 40.7^¥ s | ACT (whole blood coagulation; [18]): 337.5 ± 27.8*^¥ s | ACT fold of prolongation (whole blood coagulation; single iv 3.0 mg/kg, After administration 5 min): 1.0 ± 0.2 | ACT fold of prolongation (whole blood coagulation; single iv 3.0 mg/kg, After administration 15 min): 1.0 ± 0.1 | ACT (whole blood coagulation; [21]): 357.5 ± 27.7 s | ACT (whole blood coagulation; [8]): 356.3 ± 35.3^¥ s | ACT (whole blood coagulation; [9]): 324.4 ± 24.1*^¥ s | ACT fold of prolongation (whole blood coagulation; [13]): 1.7 ± 0.7 | ACT fold of prolongation (whole blood coagulation; [14]): 1.6 ± 0.9 | ACT (whole blood coagulation; [12]): 232.5 ± 24.0 s | ACT (whole blood coagulation; [19]): 505.6 ± 35.3*^¥&@ s | ACT (whole blood coagulation; [20]): 418.1 ± 24.1*^¥ s | ACT fold of prolongation (whole blood coagulation; single iv 12.0 mg/kg, After administration 5 min): 1.7 ± 0.6 | ACT fold of prolongation (whole blood coagulation; single iv 12.0 mg/kg, After administration 15 min): 1.4 ± 0.3 | ACT (whole blood coagulation; [22]): 315.0 ± 24.0 s | Thrombus dry weight ([3]; single iv 3.0 mg/kg): 1.4 ± 0.5 mg | Thrombus inhibitory rate ([3]; single iv 3.0 mg/kg): 52.99% | Thrombus dry weight ([3]; single iv 6.0 mg/kg): 1.2 ± 0.7 mg | Thrombus inhibitory rate ([3]; single iv 6.0 mg/kg): 56.90% | Thrombus dry weight ([3]; single iv 12.0 mg/kg): 1.1 ± 0.9 mg | Thrombus inhibitory rate ([3]; single iv 12.0 mg/kg): 60.82% | TT [4, 21]: 21.0 ± 2.6 S | TT [4, 12]: 22.3 ± 1.9 S | TT [4, 22]: 21.8 ± 6.4 S
